Assay: Recovery of paclitaxel added to mixtures after heating to 55° C. for 1 hour (reverse phase HPLC with UV detection)
Assay type: physicochemical
Method: The desirability of removing unreacted starting materials and/or acidic reaction by-products can be seen by reference to the data in Table 1. […] According to the data, when paclitaxel is combined with a diblock copolymer having up to 2% residual monomer and up to 0.2 μmol/mg acid content (expressed as the number of protons titrated in a solution prepared by dissolving 1 mg of diblock copolymer in water), after heating, only 95% of the paclitaxel initially added to the mixture could be recovered, as quantified using a reverse phase HPLC assay with UV detection and a taxane optimized C18 column.

Paclitaxel recovered after heating (combined with diblock copolymer having up to 2% residual monomer and up to 0.2 μmol/mg acid content): 95% | Paclitaxel recovered after heating (combined with methoxypolyethylene glycol, no measured acidic components and no DL-lactide monomer): 99% | Paclitaxel recovered after heating (diblock copolymer with greatly reduced quantities of residual monomer and acidic components): 98%
SMILES: CC(=O)O[C@H]1C(=O)[C@@]2(C)[C@H]([C@H](OC(=O)c3ccccc3)[C@]3(O)C[C@H](OC(=O)[C@H](O)[C@@H](NC(=O)c4ccccc4)c4ccccc4)C(C)=C1C3(C)C)[C@]1(OC(C)=O)CO[C@@H]1C[C@@H]2O [paclitaxel]

— patent US20090220604A1, “AMINO ACIDS IN MICELLE PREPARATION” (ANGIOTECH INTERNATIONAL AG, priority 2002, published 2009)
